Measured values published in ChEMBL document CHEMBL5046240, “Design, synthesis, and evaluation of potent RIPK1 inhibitors with in vivo anti-inflammatory activity” (Eur J Med Chem, 2022).
Activity calls are given as the source filed them. No cut-off for these calls is given here.

Assays:
CYP2D6 = CYP2D6 (Homo sapiens, UniProt P10635); test: Inhibition of CYP2D6 (unknown origin) using dextromethorphan as cocktail probe substrate at 10 uM preincubated for 20 mins followed by substrate addition and measured after 20 mins by LC-MS/MS analysis relative to control; format: ADME; conditions: time 40 min
[1] = target: T1, Receptor-interacting serine/threonine-protein kinase 1 (Homo sapiens, UniProt Q13546); test: Inhibition of RIPK1 (unknown origin) using MBP and ATP as substrate preincubated for 10 mins followed by substrate addition and measured after 120 mins by ADP-Glo luminescence assay
T1 sequence (Q13546 whole entry): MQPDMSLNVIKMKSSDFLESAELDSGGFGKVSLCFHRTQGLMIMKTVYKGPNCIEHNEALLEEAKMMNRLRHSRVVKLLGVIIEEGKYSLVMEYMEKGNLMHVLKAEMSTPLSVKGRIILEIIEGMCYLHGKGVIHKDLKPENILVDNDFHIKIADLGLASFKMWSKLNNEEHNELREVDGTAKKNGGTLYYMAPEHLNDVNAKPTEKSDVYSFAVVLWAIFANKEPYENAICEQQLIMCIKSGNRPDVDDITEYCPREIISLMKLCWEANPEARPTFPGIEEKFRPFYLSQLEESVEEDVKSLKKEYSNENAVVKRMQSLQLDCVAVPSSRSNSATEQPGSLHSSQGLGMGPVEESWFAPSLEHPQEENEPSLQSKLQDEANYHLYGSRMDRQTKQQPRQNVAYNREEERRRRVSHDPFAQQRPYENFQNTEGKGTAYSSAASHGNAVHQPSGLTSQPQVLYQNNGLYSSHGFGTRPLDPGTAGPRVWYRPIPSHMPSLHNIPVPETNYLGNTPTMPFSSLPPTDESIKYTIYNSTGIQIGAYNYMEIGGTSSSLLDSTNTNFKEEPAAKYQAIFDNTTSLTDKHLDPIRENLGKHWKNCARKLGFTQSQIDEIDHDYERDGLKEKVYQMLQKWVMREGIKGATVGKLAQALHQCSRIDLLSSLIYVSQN

[2] = Protein binding in human plasma by LC-MS/MS based equilibrium dialysis method; format: ADME, cell-free; conditions: read-out: PPB (converted)
Mus musculus = test: Anti-necroptosis activity against TNFalpha-induced C57BL/6J mouse systemic inflammatory response syndrome model assessed as reduction in hypothermia at 3 mg/kg, ip pretreated for 15 mins and measured upto 72 hrs after TNFalpha stimulation; format: functional, organism-based
CYP1A2 = target: T2, CYP1A2 (Homo sapiens, UniProt P05177); test: Inhibition of CYP1A2 (unknown origin) using Phenacetin as cocktail probe substrate at 10 uM preincubated for 20 mins followed by substrate addition and measured after 20 mins by LC-MS/MS analysis relative to control; format: ADME; conditions: time 40 min
T2 sequence (P05177 whole entry): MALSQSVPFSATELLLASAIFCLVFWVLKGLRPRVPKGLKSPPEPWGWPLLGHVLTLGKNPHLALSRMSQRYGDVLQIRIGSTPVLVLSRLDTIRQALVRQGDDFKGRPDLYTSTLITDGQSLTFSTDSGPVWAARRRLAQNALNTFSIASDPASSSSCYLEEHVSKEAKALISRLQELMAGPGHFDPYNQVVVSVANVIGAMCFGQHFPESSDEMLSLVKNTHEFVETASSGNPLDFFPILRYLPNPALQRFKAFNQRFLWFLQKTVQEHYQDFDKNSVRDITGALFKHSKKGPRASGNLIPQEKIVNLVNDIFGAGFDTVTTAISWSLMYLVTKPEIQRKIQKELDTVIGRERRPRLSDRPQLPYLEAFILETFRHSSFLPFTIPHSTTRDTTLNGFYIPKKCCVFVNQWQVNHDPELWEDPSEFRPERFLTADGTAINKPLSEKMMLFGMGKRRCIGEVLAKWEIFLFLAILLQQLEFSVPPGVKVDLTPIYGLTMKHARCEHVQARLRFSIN

[3] = Toxicity in C57BL/6J mouse assessed as effect on kidney morphological changes at 5 to 25 mg/kg, po administered daily for 7 days by H and E staining method; format: organism-based; conditions: in vivo, 168 h, dose 5-25 mg/kg, time 7 day
[4] = Oral bioavailability in Sprague-Dawley rat at 10 mg/kg measured upto 24 hrs by LC-MS/MS analysis; format: ADME, organism-based; conditions: in vivo
[5] = Metabolic stability in rat liver microsomes assessed as intrinsic clearance by LC-MS/MS analysis; format: ADME, Microsome; conditions: read-out: CLH
[6] = target: Receptor-interacting serine/threonine-protein kinase 3 (Homo sapiens) (UniProt Q9Y572); test: Binding affinity to wild-type human partial length RIPK3 (M1 to Q307 residues) expressed in bacterial expression system at 10000 nM measured after 1 hr by Kinomescan method
[7] = Toxicity in C57BL/6J mouse assessed as effect on heart morphological changes at 5 to 25 mg/kg, po administered daily for 7 days by Hand E staining method; format: organism-based; conditions: in vivo, 168 h, dose 5-25 mg/kg, time 7 day
[8] = Toxicity in C57BL/6J mouse assessed as effect on lung morphological changes at 5 to 25 mg/kg, po administered daily for 7 days by H and E staining method; format: organism-based; conditions: in vivo, 168 h, dose 5-25 mg/kg, time 7 day
L929 = test: Anti-necroptic activity in mouse L929 cells assessed as TNFalpha/Z-VAD (TSZ) induced necroptosis by measuring cell viability preincubated for 1 hr followed by TSZ addition and measured after 24 hrs by celltiter-glo luminescent cell viability assay; format: functional, cell-based
[9] = AUC (0 to 24 hrs) in Sprague-Dawley rat at 2 mg/kg, iv measured upto 24 hrs by LC-MS/MS analysis; format: ADME, organism-based; design: route intravenous, dose 2 mg/kg, time <=24; conditions: in vivo
CYP3A4 = CYP3A4 (Homo sapiens, UniProt P08684); test: Inhibition of CYP3A4 (unknown origin) using midazolam as cocktail probe substrate at 10 uM preincubated for 20 mins followed by substrate addition and measured after 20 mins by LC-MS/MS analysis relative to control; format: ADME; conditions: time 40 min
[10] = Half life in Sprague-Dawley rat at 10 mg/kg , po measured upto 24 hrs by LC-MS/MS analysis; format: ADME, organism-based; conditions: in vivo
[11] = Toxicity in C57BL/6J mouse assessed as effect on spleen morphological changes at 5 to 25 mg/kg, po administered daily for 7 days by H and E staining method; format: organism-based; conditions: in vivo, 168 h, dose 5-25 mg/kg, time 7 day

Chain of CYP3A4 (P08684 whole entry): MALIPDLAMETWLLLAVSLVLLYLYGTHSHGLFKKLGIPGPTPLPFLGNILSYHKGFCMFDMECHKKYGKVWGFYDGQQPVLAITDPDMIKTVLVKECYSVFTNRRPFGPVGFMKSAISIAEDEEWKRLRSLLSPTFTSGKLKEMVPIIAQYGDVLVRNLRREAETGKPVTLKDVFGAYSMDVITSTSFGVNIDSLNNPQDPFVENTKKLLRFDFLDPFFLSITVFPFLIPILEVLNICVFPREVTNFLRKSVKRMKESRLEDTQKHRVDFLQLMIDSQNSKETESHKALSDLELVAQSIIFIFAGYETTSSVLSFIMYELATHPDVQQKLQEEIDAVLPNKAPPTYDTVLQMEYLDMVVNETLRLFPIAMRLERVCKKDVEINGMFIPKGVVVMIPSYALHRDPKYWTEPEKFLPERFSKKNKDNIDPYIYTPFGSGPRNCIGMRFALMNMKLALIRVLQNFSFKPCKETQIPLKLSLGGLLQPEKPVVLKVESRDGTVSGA
Chain of Receptor-interacting serine/threonine-protein kinase 3 (Homo sapiens) (Q9Y572 whole entry, looked up, the tested form may be a part): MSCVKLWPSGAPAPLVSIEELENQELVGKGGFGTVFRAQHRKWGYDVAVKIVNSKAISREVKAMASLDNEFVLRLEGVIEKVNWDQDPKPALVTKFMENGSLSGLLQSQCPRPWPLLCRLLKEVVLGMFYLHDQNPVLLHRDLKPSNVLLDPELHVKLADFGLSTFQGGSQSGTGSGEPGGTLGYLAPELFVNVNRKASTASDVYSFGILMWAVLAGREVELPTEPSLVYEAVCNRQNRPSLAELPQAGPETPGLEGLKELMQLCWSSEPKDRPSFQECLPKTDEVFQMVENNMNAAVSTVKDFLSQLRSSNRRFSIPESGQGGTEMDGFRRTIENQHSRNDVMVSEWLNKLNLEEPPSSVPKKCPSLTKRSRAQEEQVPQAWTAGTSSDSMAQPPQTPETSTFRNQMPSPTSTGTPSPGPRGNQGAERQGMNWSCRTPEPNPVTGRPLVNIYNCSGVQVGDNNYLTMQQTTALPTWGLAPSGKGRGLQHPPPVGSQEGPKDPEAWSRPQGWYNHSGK
Chain of CYP2D6 (P10635 whole entry): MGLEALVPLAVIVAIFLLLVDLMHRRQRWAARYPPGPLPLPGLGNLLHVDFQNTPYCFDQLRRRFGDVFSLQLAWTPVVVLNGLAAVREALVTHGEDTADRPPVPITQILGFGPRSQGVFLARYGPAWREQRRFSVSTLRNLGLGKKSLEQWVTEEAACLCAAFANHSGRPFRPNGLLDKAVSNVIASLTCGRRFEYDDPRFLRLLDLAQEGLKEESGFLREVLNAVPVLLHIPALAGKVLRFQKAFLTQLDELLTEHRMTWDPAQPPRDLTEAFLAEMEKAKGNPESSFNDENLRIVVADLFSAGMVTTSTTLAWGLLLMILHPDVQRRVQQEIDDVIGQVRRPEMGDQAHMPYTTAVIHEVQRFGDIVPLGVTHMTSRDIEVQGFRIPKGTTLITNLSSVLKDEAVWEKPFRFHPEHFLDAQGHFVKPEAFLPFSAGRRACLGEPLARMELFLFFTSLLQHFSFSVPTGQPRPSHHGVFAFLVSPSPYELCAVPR

Cc1ncc(-c2ccc3nc(NC(=O)C4CC4)sc3c2)cc1NC(=O)OC1CCOCC1
inhibition at 20 min, 10 µM (CYP2D6): 21% | IC50 [1]: 67 nM | fraction unbound [2]: 0.016 | Activity (Mus musculus): Active | inhibition at 20 min, 10 µM (CYP1A2): 16% | Activity [3]: Non-Toxic | F [4]: 63% | CLint scaled [5]: 159 mL/min/kg | Activity [6]: inactive | Activity [7]: Non-Toxic | Activity [8]: Non-Toxic | EC50 (L929): 30 nM | AUC [9]: 1208 ng·h/mL | inhibition at 20 min, 10 µM (CYP3A4): 17% | half-life [10]: 1.7 h | Activity [11]: Non-Toxic
